Patent publication US20210212960A1, “IDENTIFICATION OF SEIZURE SUSCEPTIBILITY REGION IN WOLF-HIRSCHHORN SYNDROME AND TREATMENT THEREOF” (Lineagen, Inc., priority 2016, published 2021)

Experiments:
[1] = tested on: seizures in individuals with WHS; experiment: Online survey of 4p-Support Group parents: seizure control outcome by seizure treatment in WHS (Example 5); format: in vivo, human; conditions: for Seizure control outcome: Complete control, Percent / Seizure control outcome: Increased number of seizure, Percent / Seizure control outcome: Less than 50% reduction, Percent / Seizure control outcome: No change, Percent / Seizure control outcome: ≥50% reduction, Percent: percent of users of the medication
From the text: This study and all recruitment materials were approved by the University of Utah IRB (IRB_00064655). The cohort for this study was recruited from the 4p-Support Group, which is comprised of parents and caretakers of individuals with WHS. Inclusion criteria were: 1) a genetic diagnosis of WHS and 2) at least one seizure treatment had been used for seizure control. An invitation to participate in the survey was sent out to all members of the 4p-Support Group email list (representing approximately 300 individuals with WHS) and posted on the 4p-Support Group's Facebook page. Individuals self-identifying as a parent or caretaker of an individual with WHS and a history of seizures, who had tried at least one seizure treatment, were invited to participate. The invitation described the purpose of the study and provided a link to the online survey.
The survey was developed by expanding the seizure history and treatment sections of a previous survey used by Ho et al (J Med Genet 2016; 53:256-263). The online survey was hosted by the HIPAA-compliant platform, RedCAP, and consisted of four sections. The first section collected general demographic information about the individual with WHS. Two additional questions were added to confirm whether the individual had genetic testing to confirm the diagnosis of WHS and ascertain which type of genetic testing had been completed. The second section focused on seizure history. This included age of onset, types of seizures, seizure duration, status epilepticus (seizures lasting longer than 30 minutes), and whether the individual still experiences seizures or is seizure free. The third section asked about antiepileptic drugs (AEDs) used for seizure treatment. Participants were asked to list each AED or combination of AEDs tried in chronological order. For each AED or combination of AEDs participants were asked about duration, effect on number of seizures, side effects, and reasons for discontinuing that AED or combination of AEDs. There were also questions about whether the individual was on a ketogenic diet or using cannabis oil during that time. Space for additional comments about each AED or combination of AEDs tried was also provided. The fourth section contained questions about use of ketogenic diet or cannabis oil while in the absence of AEDs. Again participants were asked about duration, effect on number of seizures, side effects, and reasons for discontinuing. In the case of cannabis oil use, participants were asked to specify whether pure cannabis oil or a THC mixture was used.
The levels of seizure control outcome were grouped into five categories: increased number of seizure, no change, less than 50% reduction, >50% reduction, and complete control.
When a medication was used multiple times (or when looking at combined medication), the seizure control outcome was scored as the best response among all of them. The most frequently used 5 medications reported in this cohort are phenobarbital, diazepam, lamotrigine, valproic acid (sodium valproate) and levetiracetam. We used frequency and percentages to describe the seizure control outcome of these five medications. The Kruskal-Wallis test was performed to evaluate the level of seizure control achieved with these five medications. The Wilcoxon rank sum test was performed to evaluate the hypothesis of the different seizure control outcomes between carbamazepine and levetiracetam. Comparison of the seizure control outcome based on whether levetiracetam was used first or later, was performed by the Cochran Armitage test. Statistical analysis was conducted using SAS 9.4 (SAS Inc., N.C.).

[2] = tested on: seizures in individuals with WHS; experiment: Parent-reported responses to seizure medications, questionnaire of the 48-individual WHS cohort (Example 1); format: in vivo, human; conditions: n users per drug; for Negative reports: number of unprompted parent reports of a negative reaction causing stop of the drug or no control over seizures; for Positive reports: number of unprompted parent reports of significant and observable increase in control over seizures
From the text: This questionnaire captures the health, medical profile, developmental history, and treatment responses of individuals with WHS. For the present study, the focus was on the presence or absence of seizures, age of seizure onset, types of seizures, antiepileptic drugs (AEDs) used and responses to these AEDs, as well as responses to the ketogenic diet. For cases with incomplete, contradictory or unclear parental responses, medical records of patients were consulted. When available medical records were also incomplete, ‘no answer’ is indicated in the relevant text and tables.
AED responses were scored as negative if the patients' parents reported a negative reaction (allergic reaction or other) without prompting that caused them to stop using that drug, or if the drug conferred no control over seizures.

[3] = tested on: seizures in patients with 15q Duplication syndrome; conditions: cited from earlier work
[4] = tested on: seizures in Dravet patients; conditions: cited from earlier work; for effectiveness of seizure treatment: individuals with Dravet syndrome
[5] = tested on: seizures in individuals with WHS and with Dravet syndrome; conditions: individuals with WHS as well as individuals with Dravet syndrome; cited from earlier work
[6] = tested on: seizures of this subtype of CDG; conditions: subtype of CDG caused by genes functioning like PIGG; cited from earlier work
[7] = levetiracetam used as first AED (n = 31)
[8] = levetiracetam used later in treatment (n = 27)

Compound	Seizure control outcome: Complete control, Percent [1]	Seizure control outcome: Less than 50% reduction, Percent [1]	Seizure control outcome: No change, Percent [1]	Seizure control outcome: ≥50% reduction, Percent [1]	Negative reports [2]	Positive reports [2]	response to seizure treatment [3]	other results
CCC1(c2ccccc2)C(=O)NC(=O)NC1=O [Phenobarbital]	61.11%	11.11%	13.89%	11.11%	5	0	–	Seizure control outcome: Increased number of seizure, Percent [1]: 2.78%
CC[C@@H](C(N)=O)N1CCCC1=O [Levetiracetam]	56.9%	8.62%	5.17%	29.31%	1	4	generally responded well	Complete control, First use, % [1, 7]: 61.29%; Less than 50% reduction, First use, % [1, 7]: 3.23%; No change, First use, % [1, 7]: 3.23%; ≥50% reduction, First use, % [1, 7]: 32.26%; Complete control, Later use, % [1, 8]: 51.85%; Less than 50% reduction, Later use, % [1, 8]: 14.81%; No change, Later use, % [1, 8]: 7.41%; ≥50% reduction, Later use, % [1, 8]: 25.93%
NC(=O)N1c2ccccc2C=Cc2ccccc21 [Carbamazepine]	18.18%	18.18%	27.27%	9.09%	–	–	generally responded well	aggravates seizures, share of Dravet patients ([4]; Dravet syndrome): 20%; no benefit, share of Dravet patients ([4]; Dravet syndrome): 78%; Seizure control outcome: Increased number of seizure, Percent [1]: 27.27%; effect on seizures [5]: exacerbate seizures
Nc1nnc(-c2cccc(Cl)c2Cl)c(N)n1 [Lamotrigine]	31.25%	6.25%	12.5%	50%	–	–	–	effect on seizures [5]: exacerbate seizures
Cc1ncc(CO)c(CO)c1O.Cl [Vitamin B6]	–	–	–	–	–	–	–	efficacy in treating seizures [6]: efficacious
CN1C(=O)CN=C(c2ccccc2)c2cc(Cl)ccc21 [Diazepam]	31.25%	6.25%	25%	37.5%	–	–	–	–
CCCC(CCC)C(=O)O [Valproic acid]	50%	9.38%	9.38%	31.25%	2	2	generally responded well	effectiveness of seizure treatment [4]: most effective
Br [bromide]	–	–	–	–	–	–	–	effectiveness of seizure treatment [4]: most effective
CC1(C)O[C@@H]2[C@@H](CO[C@@]3(COS(N)(=O)=O)OC(C)(C)O[C@@H]23)O1 [Topiramate]	–	–	–	–	4	1	–	–
